Molecular target: T1, cis-aconitate decarboxylase (CAD) (Aspergillus terreus, UniProt Q0C8L3)
T1 construct: Partial Purification of CAD from Itaconic Acid Producing A. Terreus; endogenous in cells; host or cells: Aspergillus terreus NRRL 1960 mycelium (cell free extract)
Assay: Effect of the addition of stabilizing compounds on the CAD activity
Assay type: biochemical, Aspergillus terreus NRRL 1960
Conditions: * final concentration of 20 mM, PEG 20% w/v; for CAD activity after 48 h: stabilizer added to buffer; for Initial CAD Activity: stabilizer added to buffer of A. terreus cell free extract
Experimental: The enzyme activity determination was essentially as described (Bentley et al., 1957 supra; Dwiarti et al., 2002, J Biosci Bioeng 94(1):29-33). 800 μl of 0.2 M sodium phosphate pH 6.5 was mixed with 100 μl 10 mM cis-aconitic acid and 100 μl protein solution and incubated for 20 till 60 min at 37° C. The reaction was stopped by the addition of 100 μl 12 M HCl. The amount of itaconic acid formed was determined by isocratic chromatography in 4 mM sulphuric acid on Bio-Rad Aminex HPX-87H column in a Dionex HPLC equipped with an UV detector at 215 nm. Calibration of the signal was accomplished by running a known amount of itaconic acid in a separate run. One unit (U) is one μmol of itaconic acid formed per minute. The same chromatographic assay was used to monitor the amount of itaconic acid formed in the broth of shake flasks or fermenter cultures as being indicative for cis-aconitate decarboxylase (CAD) induction. The protein concentration was measured according to Bradford with the Bio-Rad protein assay (Bradford, Anal Biochem 1976; 72:248-54).
Approximately 1 g of frozen mycelium was transferred to a Teflon vessel and grinded with a metal ball for one minute using a dismembrator (Braun-Melsungen, Germany). Multiple batches of the powdered mycelium were resuspended in 10 ml 0.2 M sodium phosphate buffer pH 6.5 containing 1 mM DTT and 1 mM EDTA and allowed to hydrate at 0° C. for thirty minutes while mixing and centrifuged at 15000 g for 30 minutes at 4° C. to obtain the CFE.
In the purification of CAD the inherent instability of the protein was noticed. […] To overcome this problem we adapted the purification method by the addition of potential stabilizers to the buffers (Table 2).

[1] = after 48 h relative to initial CAD activity

T1 sequence (Q0C8L3 whole entry): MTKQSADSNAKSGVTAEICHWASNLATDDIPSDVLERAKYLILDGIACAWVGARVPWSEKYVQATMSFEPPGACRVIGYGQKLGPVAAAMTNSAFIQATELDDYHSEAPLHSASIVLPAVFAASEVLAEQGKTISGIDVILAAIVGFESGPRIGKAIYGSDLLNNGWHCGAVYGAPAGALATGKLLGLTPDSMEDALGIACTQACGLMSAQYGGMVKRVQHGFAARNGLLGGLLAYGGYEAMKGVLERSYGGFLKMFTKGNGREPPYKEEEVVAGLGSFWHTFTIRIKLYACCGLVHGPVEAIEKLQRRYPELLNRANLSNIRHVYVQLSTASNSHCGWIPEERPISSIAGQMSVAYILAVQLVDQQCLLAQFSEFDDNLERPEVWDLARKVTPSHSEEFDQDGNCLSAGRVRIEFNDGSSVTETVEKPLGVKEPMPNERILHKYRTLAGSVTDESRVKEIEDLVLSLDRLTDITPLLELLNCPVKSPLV

Row | SMILES | CAD activity after 48 h [U/mL] | Remaining activity [1] [%] | Initial CAD Activity [U/mL] | remaining activity at 20000 µM [1] [%]
1 | O=C(O)c1ccccc1 [Benzoate] | 0.43 | 32 | 1.36 | 
2 | O=C1O[C@H]([C@@H](O)CO)C(O)=C1O [Ascorbic Acid] | 0.19 |  | 1.36 | 14
3 | O=S([O-])[O-].[Na+].[Na+] [Na2SO3] | 1.30 | 88 | 1.48 | 

From patent US20110099670A1, “[…] CODING FOR CIS-ACONITIC DECARBOXYLASE AND USE THEREOF” (priority 2008, published 2011)
